Where a name gives a salt, the structure may show the parent alone.
Experiments:
[1] = Stability of octopamine forms exposed to the atmosphere (in-house results); assay type: physicochemical; conditions: normal atmospheric conditions; according to our calculations
Text: First, we have discovered that octopamine in the base form is very unstable and oxidizes rapidly when readily exposed to the atmosphere.
For instance, although the half-life of octopamine base is roughly 6 months, the half-life for octopamine salts of this invention such as octopamine HCl is at least 5 years according to our calculations. To be used commercially for metabolic enhancement, it is of extreme importance that the octopamine form used has a shelf life long enough so that the octopamine remains filly efficacious for at least one year and preferably two years.

[2] = Example 1: weight loss in subjects given capsules, no change of diet or exercise; assay type: in vivo, human; parameters: average weight loss: unit not given here; conditions: 6 mg/kg per day calculated as octopamine base; for average weight loss: capsules, divided dosages
Method: Octopamine base, octopamine HCl, octopamine malate, and octopamine ethylcarbonate were prepared and given as capsules in divided dosages at 6 mg/kg per day calculated as octopamine base.

[3] = Example 2: change in percent bodyfat and lean body mass, perceived energy and mental outlook in subjects; assay type: in vivo, human; conditions: for Change Percent Bodyfat / Change Percent Lean Body Mass: 6 mg/kg per day calculated as octopamine base; for Perceived Energy / Perceived Mental Outlook and Focus: subjective, scale of 1-10, 6 mg/kg per day
Method: Octopamine HCl was prepared and given as capsules in divided dosages at 6 mg/kg per day calculated as octopamine base. […] Subjective results are also shown regarding perceived energy and mental outlook and focus (scale of 1-10): […]

[4] = Metabolic potency, bioavailability and tolerability of octopamine salts versus base in users; assay type: in vivo, human
Text: Finally, we have discovered that the base form of octopamine has significant bioavailability problems. […] There is thus great need for an improvement to this technology which allows octopamine to be a commercially viable option for metabolic enhancement.
We have found the octopamine salts of this invention are up to four times more efficient at affecting specific metabolic parameters than octopamine base.
The octopamine salts of this invention can be commercially used in various ways as metabolic enhancers. For instance, we have found usefulness with these compounds as weight loss agents. […] Even in high dosages, the user feels no noticeable negative effect on his general feeling or overall state of well-being. Furthermore, these octopamine salts specifically enhance the loss of adipose tissue while preserving lean body mass such as muscle tissue. A significant problem for anyone trying to lose unwanted adipose tissue is the concurrent loss of lean body mass. Lean body mass includes tissues such as muscle, kidney, liver, heart and bone. For a person to feel healthy and strong, these tissues must also be healthy and strong. […]
Human dosaging for the octopamine salts of this invention is most preferable in the range of 5-15 mg/kg of bodyweight calculated as base octopamine. […]

NCC(O)c1ccc(O)cc1 (stereo not drawn) [Octopamine HCl]
half-life [1]: ≥ 1830 days
average weight loss ([2]; Week 1, HCl, 6 mg/kg/day): 2
average weight loss ([2]; Week 4, HCl, 6 mg/kg/day): 6
average weight loss ([2]; Week 8, HCl, 6 mg/kg/day): 9
Change Percent Bodyfat ([3]; Week 1): −.5%
Change Percent Lean Body Mass ([3]; Week 1): 0%
Perceived Energy ([3]; Week 1): 6
Perceived Mental Outlook and Focus ([3]; Week 1): 7
Change Percent Bodyfat ([3]; Week 4): −2%
Change Percent Lean Body Mass ([3]; Week 4): +.3%
Perceived Energy ([3]; Week 4): 8
Perceived Mental Outlook and Focus ([3]; Week 4): 7
Change Percent Bodyfat ([3]; Week 8): −4%
Change Percent Lean Body Mass ([3]; Week 8): +1%
Perceived Energy ([3]; Week 8): 8
Perceived Mental Outlook and Focus ([3]; Week 8): 9

Octopamine ethylcarbonate
average weight loss ([2]; Week 1): 2
average weight loss ([2]; Week 4): 6
average weight loss ([2]; Week 8): 10

NCC(O)c1ccc(O)cc1 (stereo not drawn) [Octopamine base, Octopamine]
weight loss (result in words) ([2]; up to Week 8): neither the octopamine base nor the control resulted in appreciable or significant weight loss
average weight loss ([2]; Week 1, 6 mg/kg/day): 0
average weight loss ([2]; Week 4, 6 mg/kg/day): 1
average weight loss ([2]; Week 8, 6 mg/kg/day): 2
minimum effective dosage relative to the octopamine salts of the invention [4]: nearly four times

Octopamine malate
average weight loss ([2]; Week 1): 1
average weight loss ([2]; Week 4): 5
average weight loss ([2]; Week 8): 10
